Reference: ChEMBL document CHEMBL5500345, “Discovery of a novel homoisoflavonoid derivative 5g for anti-osteoclastic bone loss via targeting FGFR1” (Eur J Med Chem, 2024)

Columns and labels:
BMDM [1] = assay: Anti-osteoclastogenic activity in C57/BL6 mouse BMDM cells assessed as inhibition of RANKL-induced osteoclast differentiation at 5 uM incubated for 4 days in presence of M-CSF by TRAP staining based microscopic analysis relative to control; assay type: functional; conditions: 96 h, time 4 day
BMDM [2] = assay: Anti-osteoclastogenic activity in C57/BL6 mouse BMDM cells assessed as inhibition of RANKL-induced osteoclast differentiation at 10 uM incubated for 4 days in presence of M-CSF by TRAP staining based microscopic analysis relative to control; assay type: functional; conditions: 96 h, time 4 day

Structure (SMILES)	inhibition at 5 µM (BMDM [1]) [%]	inhibition at 10 µM (BMDM [2]) [%]
CCCCOc1ccccc1Cc1c(-c2ccccc2)oc2ccccc2c1=O	19	44.7
CCOc1cccc(Cc2c(-c3ccccc3)oc3ccccc3c2=O)c1O	1.08	25
COc1ccc(O)c(Cc2c(-c3ccccc3)oc3ccc(OC)cc3c2=O)c1	17.6	16.8
Cc1ccc(O)c(Cc2c(-c3ccccc3)oc3ccccc3c2=O)c1	21.5	32.5
O=c1c(Cc2cccc(F)c2)c(-c2ccccc2)oc2ccccc12	22	36.3
O=c1c(Cc2ccccc2)c(-c2ccccc2)oc2ccccc12	22.6	30.6
COc1cc(Oc2ccccc2Cc2c(-c3ccccc3)oc3ccccc3c2=O)cc(OC)c1OC	22.7	40.3
Cc1ccc(-c2oc3ccccc3c(=O)c2Cc2ccccc2O)cc1	34.4	37.8
O=c1cc(-c2ccccc2)oc2ccccc12 [FLAVONE]	7.11	35.4
O=c1c(Cc2cc(Br)ccc2O)c(-c2ccccc2)oc2ccccc12	22.7	54.5
O=c1c(Cc2ccccc2O)coc2ccccc12	12.8	46.7
O=c1c(Cc2ccccc2O)c(-c2ccc(-c3ccccc3)cc2)oc2ccccc12	37.9	69.3
